Data on two substances can be found in patent US11311599B2, “β-1,3-glucan-peptide complex: compositions and methods” (priority 2018, dated 2022).

Data set [1] concerns NADPH oxidase. As to the kind of experiment: NADPH oxidase activity in LPS-stimulated RAW2647 cells (lucigenin-ECL superoxide). It counts as cell-based, mouse. The conditions noted are these: RAW2647 cells stimulated with LPS; treated at 1, 5 or 10 μg/mL; FIG. 2. The procedure: A mouse macrophage cell line, which is RAW2647 (ATCCTIB-71; American Type Culture Collection) cells, was cultured using DMEM (Invitrogen) containing 10% fetal bovine serum (FBS; Invitrogen), sodium pyruvate, non-essential amino acids, penicillin G (100 IU/ml) and streptomycin (100 μg/ml).
Sequence of NADPH oxidase (O70145 whole entry): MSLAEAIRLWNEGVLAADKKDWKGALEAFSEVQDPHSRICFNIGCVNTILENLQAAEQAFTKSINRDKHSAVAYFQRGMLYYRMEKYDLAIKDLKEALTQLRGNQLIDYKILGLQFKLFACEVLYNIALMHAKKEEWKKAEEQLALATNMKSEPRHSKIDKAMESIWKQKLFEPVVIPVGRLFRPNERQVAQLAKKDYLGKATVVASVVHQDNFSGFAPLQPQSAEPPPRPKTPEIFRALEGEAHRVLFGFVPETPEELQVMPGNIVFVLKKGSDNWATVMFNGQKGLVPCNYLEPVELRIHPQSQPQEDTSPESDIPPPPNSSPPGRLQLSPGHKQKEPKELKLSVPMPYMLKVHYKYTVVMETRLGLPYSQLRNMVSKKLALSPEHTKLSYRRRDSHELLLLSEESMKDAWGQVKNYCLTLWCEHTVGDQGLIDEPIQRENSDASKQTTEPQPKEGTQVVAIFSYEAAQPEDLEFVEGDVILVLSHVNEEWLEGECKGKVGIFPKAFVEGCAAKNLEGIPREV
Sequence of NADPH oxidase (Q09014 whole entry, further chain): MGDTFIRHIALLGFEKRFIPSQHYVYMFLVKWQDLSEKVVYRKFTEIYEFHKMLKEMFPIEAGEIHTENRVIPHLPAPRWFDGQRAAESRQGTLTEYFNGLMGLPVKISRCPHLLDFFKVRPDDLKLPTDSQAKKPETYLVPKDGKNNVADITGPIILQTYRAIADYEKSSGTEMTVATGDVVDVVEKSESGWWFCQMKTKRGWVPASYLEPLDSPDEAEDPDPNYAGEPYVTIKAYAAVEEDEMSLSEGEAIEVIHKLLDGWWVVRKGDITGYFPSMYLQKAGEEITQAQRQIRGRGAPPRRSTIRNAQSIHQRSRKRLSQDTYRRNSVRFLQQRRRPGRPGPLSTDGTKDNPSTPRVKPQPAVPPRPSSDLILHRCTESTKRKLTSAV
Whether reactive oxygen species (ROS) production is inhibited when RAW2647 cells were treated with each of SPG-SH1, SPG-SH2 or SPG-SH3 was determined. Particularly. NADPH oxidase (NOX) activity and a mitochondrial ROS level were confirmed.
Particularly, after the RAW2647 cells were stimulated with LPS, SPG-SH1, SPG-SH2 or SPG-SH3 was treated at a concentration of 1, 5 or 10 μg/mL, respectively. The NADPH oxidase activity was confirmed by measuring the production of a superoxide in the RAW2647 cells by a lucigenin (bis-N-methylacridinium nitrate)-ECL method. The production of mitochondrial ROS was determined by staining the RAW2647 cells with 5 μM of MitoSOX for 30 minutes and then measuring mean fluorescence intensity (MFI) by FACS analysis.

Data set [2] has as its system NADPH oxidase. As to the kind of experiment: NADPH oxidase activity in spleen of CLP mice. Conditions: spleen of CLP mouse; intraperitoneal at 3, 6 and 12 hours, doses of Table 1; FIG. 3. It counts as in vivo. The protocol: (§1) The pharmaceutical composition of the present invention was intraperitoneally administered into a CLP mouse to confirm an antiinflammatory effect thereof. Specifically, the CLP mouse was anesthetized by administering pentothal sodium (50 mg/kg) intraperitoneally, and then its abdomen was dissected to expose the cecum. The cecum was ligated below the ileocecal valve, punctured twice with a 22-gauge needle, and then the abdomen was closed.
(§2) Sepsis mouse models induced by cecal ligation and puncture (CLP) were prepared using 6-week-old C57BL/6 female mice (Samtako, Korea). All animal-related procedures were approved by the Institutional Animal Care and Use Committee of Hanyang University. The CLP mice were intraperitoneally administered three times (at 3, 6 and 12 hours) with an administered substance shown in Table 1. SPG-SC is a peptide complex having a sequence in which SPG-SH3 sequences were randomly mixed, and as the antibiotic, a combination of gentamycin and cephalosporin was used.
(§3) Particularly, CLP mice (n=5) treated with the same administered substances as in Example <1-1> were prepared. […] Alternatively, the spleen of the CLP mouse was obtained and fractionated, a 5 μM reagent in a mitochondrial ROS activity assay kit (CA-R933) was treated for 60 minutes, and Ex/Em was measured at 490/525 nm. […]

The next data set relates to IL-1β. As to the kind of experiment: IL-1β in peripheral blood of CLP mice (ELISA). It counts as in vivo, mouse. Conditions: 20 hours after treatment, FIG. 5. The protocol: as §2
(§4) Whether a pro-inflammatory cytokine was inhibited when CLP mice were treated with a combination of SPG-SH3 and an antibiotic was determined.
(§5) Specifically, 20 hours after CLP mice were treated with the same administered substances as in Example <1-1>, the peripheral blood was obtained. The concentrations of TNF-α, IL-6, IL-1β and IL-18 in the blood were measured using an ELISA kit (BD Biosciences).
A general note: ELISA stands for enzyme-linked immunosorbent assay.

The subject of another data set is TNF-α. As to the kind of experiment: TNF-α in peripheral blood of CLP mice (ELISA). Conditions: 20 hours after treatment, FIG. 5. It counts as in vivo, mouse. The procedure:
as §2, §4, §5

Data set [3] concerns CLP mice. As to the kind of experiment: Total ROS in spleen of CLP mice. It counts as in vivo. The conditions noted are these: spleen of CLP mouse; intraperitoneal at 3, 6 and 12 hours, doses of Table 1; FIG. 3. The protocol:
as §1, §2, §3

A further data set concerns IL-6. As to the kind of experiment: IL-6 in peripheral blood of CLP mice (ELISA). It counts as in vivo, mouse. The conditions noted are these: 20 hours after treatment, FIG. 5. The procedure: as §2, §4, §5
Data set [4] has as its system CLP mice. As to the kind of experiment: Survival of mice with CLP-induced sepsis. It counts as in vivo, mouse. The conditions noted are these: approximately 60 hours after CLP treatment, doses of Table 1, FIG. 4. The protocol:
as §1, §2
Specifically. CLP mice (n=7, twice; total 14) were treated with the administered substances as in Example <1-1> and monitored for 7 days.

A further data set has as its system IL-18. As to the kind of experiment: IL-18 in peripheral blood of CLP mice (ELISA). It counts as in vivo, mouse. Conditions: 20 hours after treatment, FIG. 5. The protocol:
as §2, §4, §5

No end group written: not given here.

Regarding “SH3: SH3 peptide, SEQ ID NO: 4, ALLSFKKGGQTGYIPSNYV, 19 amino acids, from SH3-1 and SH3-2 sequences of c-Src (SH3)”, in the data set on NADPH oxidase [1], the NADPH oxidase activity entry is given as “lowest”.
Regarding “SPG-SH3: β-glucan-peptide complex: schizophyllan (β-1,3-glucan) carboxylated and linked to amine group of SH3 peptide (SEQ ID NO: 4, ALLSFKKGGQTGYIPSNYV) (also: linked via amine group to carboxylated schizophyllan β-glucan)”, the “NADPH oxidase activity level” value in the data set with NADPH oxidase [2] was “significantly reduced”. Moreover, the “concentration of IL-1β” value in the data set on IL-1β was “significantly reduced”. In addition, the “concentration of TNF-α” value with TNF-α is listed as “significantly reduced”. Further, the NADPH oxidase activity result with NADPH oxidase [1] was “lowest”. In addition, the “total ROS level” value in the data set with CLP mice [3] was “significantly reduced”. In the data set with IL-6, the “concentration of IL-6” value is “significantly reduced”. Moreover, the survival rate entry with CLP mice [4] was “approximately 70%”. In the data set with IL-18, the “concentration of IL-18” value is listed as “significantly reduced”.
